Each structure is given as a SMILES string.

The target in the first test is T1, stromelysin (Homo sapiens, UniProt P08254).
T1 construct: made in house; host or cells: E. coli
T1 sequence (P08254 100-272 limits assumed): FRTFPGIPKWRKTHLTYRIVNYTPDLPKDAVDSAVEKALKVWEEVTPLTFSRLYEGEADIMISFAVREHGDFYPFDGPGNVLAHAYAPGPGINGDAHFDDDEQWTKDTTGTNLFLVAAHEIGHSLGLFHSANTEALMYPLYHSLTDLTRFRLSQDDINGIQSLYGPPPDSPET
Description: Determination of stromelysin inhibition (thiopeptide ester substrate cleavage, DTNB, microtiter plate).
Details: not given
In kind it is biochemical. On the procedure: The efficacy of the compounds of this invention as matrix metalloproteinase inhibitors was determined by measuring the inhibition of stromelysin. The inhibition of stromelysin by the compounds of this invention was determined as follows: Recombinant truncated stromelysin (human sequence) produced in E. coli was prepared by expression and purification of the protein as described by Ye et al., Biochemistry, 1992, 31, 11231-11235. The enzyme was assayed by its cleavage of the thiopeptide ester substrate Ac-Pro-Leu-Gly-[2-mercapto-4-methyl-pentanoyl]-Leu-Gly-OEt described by Weingarten and Feder, Anal. Biochem., 1985, 147, 437-440 (1985), as a substrate of vertebrate collagenase. The reported conditions were modified to allow assays to be carried out in a microtiter plate. Upon hydrolysis of the thioester bond, the released thiol group reacts rapidly with 5,5'-dithio-bis(2-nitrobenzoic acid) (DTNB), producing a yellow color which is measured by a microtiter plate reader set at 405 nm. The rates of cleavage of the substrate by stromelysin in the presence or absence of inhibitors are measured in a 30 min assay at ambient temperature. Solutions of the compounds in DMSO are prepared, and these are diluted at various concentrations into the assay buffer (50 mM MES/NaOH pH 6.5 with 10 mM CaCl2 and 0.2% Pluronic F-68), which is also used for dilution of the enzyme and substrate. The potency of the compounds [IC50 ] are calculated from the inhibition/inhibitor concentration data.
As a reminder, the IC50 is the point on the concentration scale where inhibition reaches its midpoint. `CC(C)C[C@@H](C(=O)N[C@H](Cc1ccccc1)C(=O)c1c[nH]c2ccccc12)[C@H](O)C(=O)NO` [Example 13] came in with an IC50 of 99 nM.

Compound `C=CC[C@H](C(=O)NO)[C@@H](CC(C)C)C(=O)NC(Cc1ccccc1)C(=O)c1cccnc1` (stereo partly drawn) [Example 22] yielded an IC50 of 10 nM.

`C=CC[C@H](C(=O)NO)[C@@H](CC(C)C)C(=O)NC(Cc1ccccc1)C(=O)c1nccs1` (stereo partly drawn) [Example 26] had an IC50 of 220 nM.

The same test, now with this note: recombinant truncated stromelysin (human sequence); thiopeptide ester substrate, pH 6.5, 30 min, ambient temperature; read-out: IC50 (Inhibitory Potencies against Stromelysin).
In the case of `C=CCCC[C@H](C(=O)NO)[C@@H](CC(C)C)C(=O)N[C@@H](Cc1ccccc1)C(=O)c1c[nH]c2ccccc12` [Example 2], the IC50 was determined as 3.6 nM.

In the case of `CC(C)C[C@H](CC(=O)NO)C(=O)N[C@@H](Cc1ccccc1)C(=O)c1c[nH]c2ccccc12` [Example 5], the IC50 worked out at 5.6 nM.

`Cc1ccc(CCC[C@H](CC(=O)NO)C(=O)N[C@@H](Cc2ccccc2)C(=O)c2c[nH]c3ccccc23)cc1` [Example 6]: the IC50 is 12 nM.

Consider `C=CCCC[C@H](C(=O)O)[C@@H](CCCc1ccc(C)cc1)C(=O)N[C@@H](Cc1ccccc1)C(=O)c1c[nH]c2ccccc12` [Example 7], for which the IC50 was determined as 8 nM.

Take `C=CCCC[C@H](C(=O)NO)[C@@H](CCCc1ccc(C)cc1)C(=O)N[C@@H](Cc1ccccc1)C(=O)c1c[nH]c2ccccc12` [Example 8]: the IC50 is 8.6 nM.

With `C=CC[C@H](C(=O)NO)[C@@H](CC(C)C)C(=O)N[C@H](C(=O)c1c[nH]c2ccccc12)C(C)(C)C` [Example 9], the IC50 worked out at 1.2 nM.

For the compound `CC(C)C[C@@H](C(=O)N[C@@H](Cc1ccccc1)C(=O)c1c[nH]c2ccccc12)[C@H](O)C(=O)O` [Example 10], the IC50 was 7100 nM.

For `CC(C)C[C@@H](C(=O)N[C@H](Cc1ccccc1)C(=O)c1c[nH]c2ccccc12)[C@H](O)C(=O)O` [Example 11], the IC50 was determined as 93000 nM.

As for `CC(C)C[C@@H](C(=O)N[C@@H](Cc1ccccc1)C(=O)c1c[nH]c2ccccc12)[C@H](O)C(=O)NO` [Example 12], the IC50 came to 7.8 nM.

Consider `CC(C)C[C@@H](C(=O)N[C@H](C(=O)c1c[nH]c2ccccc12)C(C)(C)C)[C@H](O)C(=O)NO` [Example 14], for which the half-inhibitory concentration (IC50) turned out to be 1.2 nM.

For `CC(C)C[C@@H](C(=O)N[C@@H](Cc1ccccc1)C(=O)c1ccccc1)[C@H](O)C(=O)NO` [Example 15], the IC50 worked out at 27 nM.

Turning to `C=CC[C@H](C(=O)NO)[C@@H](CC(C)C)C(=O)N[C@@H](Cc1ccccc1)C(C)=O` [Example 17], the IC50 came to 16 nM.

On to `C=CC[C@H](C(=O)NO)[C@@H](CC(C)C)C(=O)N[C@@H](Cc1ccccc1)C(=O)c1ccccc1` [Example 18], for which the IC50 stood at 4.5 nM.

On to `C=CCCC[C@H](C(=O)NO)[C@@H](CC(C)C)C(=O)N[C@@H](Cc1ccc(O)cc1)C(=O)c1ccccc1` [Example 19], for which the IC50 is 1.5 nM.

In the case of `C=CC[C@H](C(=O)NO)[C@@H](CC(C)C)C(=O)N[C@@H](CC1CCCCC1)C(=O)c1ccccc1` [Example 20], the IC50 is 7.3 nM.

`C=CC[C@H](C(=O)NO)[C@@H](CC(C)C)C(=O)N[C@@H](Cc1ccccc1)C(=O)c1ccc[nH]1` [Example 21]: the IC50 stood at 1.7 nM.

As for `O=C(c1c[nH]c2ccccc12)[C@H](Cc1ccccc1)NC(=O)[C@H](CCCc1ccccc1)[C@H](O)C(=O)NO` [Example 27], the IC50 is 2.7 nM.

In the case of `O=C(c1c[nH]c2ccccc12)[C@H](Cc1ccccc1)NC(=O)[C@@H](CCCc1ccccc1)[C@H](O)C(=O)NO` [Example 28], the IC50 is 320 nM.

Take `CON=C(c1c[nH]c2ccccc12)[C@H](Cc1ccccc1)NC(=O)[C@@H](CC(=O)NO)CC(C)C` [Example 30]: the IC50 came out at 320 nM.

Take `CC(C)C[C@H](CC(=O)NO)C(=O)N[C@@H](CC(=O)O)C(=O)c1c[nH]c2ccccc12` [Example 31]: the IC50 is 740 nM.

`O=C(C[C@H](C(=O)N[C@@H](Cc1ccc(O)cc1)C(=O)c1ccccc1)C1CCCCC1)NO` [Example 33]: the IC50 came to 110 nM.
